According to patent US9745289B2, “Aldosterone synthase inhibitors” (Boehringer Ingelheim International GmbH, priority 2014, dated 2017):

These molecules were tested against cortisol synthase (CYP11B1) (Macaca fascicularis, UniProt A0A2K5ULY1) (assay: Inhibition of Cortisol Synthesis). Settings: cynomolgus adrenal gland mitochondria; 150 units of CYP11B1, 11-deoxycortisol as substrate, cortisol measured as product.
Type: biochemical, cynomolgus monkey
Experimental: The aldosterone synthase and cortisol synthase inhibition assays employ cynomolgus adrenal gland mitochondria as the source of aldosterone synthase (CYP11B2) and cortisol synthase (CYP11B1). […] Activity of CYP11B2 and CYP11B1 in these preparations is defined as the amount of enzyme that generates 1 pmol of product in one hour under the conditions described.
Assays are performed in 96-well format in a final volume of 60 μL/well, containing 100 mM potassium phosphate, pH 7.4, 1% (v/v) DMSO, and additionally, 2 μM of corticosterone and 50 units of CYP11B2 activity. Reactions are started by the addition of NADPH to 1 mM and allowed to proceed for 90 minutes at 37° C. Reactions are terminated by the addition of 60 μL of MeCN containing an internal standard for mass spectrometry. One hundred microliters are then transferred to a glass filter plate and centrifuged at 570×g for 5 minutes and the filtrate is collected. Reaction product aldosterone is quantified by mass spectrometry. To determine the assay blank value (0% activity), NADPH is omitted from some reactions.
Dose dependent inhibition is quantified by the inclusion of compound at various concentrations. Maximum activity (100%) is defined by reactions containing NADPH, but without compound.
Assays are performed as for aldosterone synthase except for the use of 150 units of CYP11B1, 11-deoxycortisol as substrate and cortisol measured as product.

IC50	Structure (SMILES)
> 30 µM	CN(C)C(=O)Cc1cncc(C2COc3c(cccc3C(N)=O)O2)c1 (single isomer, unassigned) [Cpd 29B, 2-[5-[2-(Dimethylamino)-2-oxo-ethyl]-3-pyridyl]-2,3-dihydro-1,4-benzodioxine-5-carboxamide]
22 µM	NC(=O)c1cccc2c1OCC(c1cncc(CC(=O)N3CCC(F)(F)CC3)c1)O2 (single isomer, unassigned) [Cpd 30A, 2-{5-[2-(4,4-Difluoro-piperidin-1-yl)-2-oxo-ethyl]-pyridin-3-yl}-2,3-dihydro-benzo[1,4]dioxine-5-carboxylic acid amide]
24 µM	NC(=O)c1cccc2c1OCC(c1cncc(CC(=O)N3CCC(F)(F)CC3)c1)O2 (single isomer, unassigned) [Cpd 30B, 2-{5-[2-(4,4-Difluoro-piperidin-1-yl)-2-oxo-ethyl]-pyridin-3-yl}-2,3-dihydro-benzo[1,4]dioxine-5-carboxylic acid amide]
> 30 µM	NC(=O)c1cccc2c1OCC(c1cncc(CN3CCOC3=O)c1)O2 (single isomer, unassigned) [Cpd 31A, 2-[5-(2-Oxo-oxazolidin-3-ylmethyl)-pyridin-3-yl]-2,3-dihydro-benzo[1,4]dioxine-5-carboxylic acid amide]
> 30 µM	NC(=O)c1cccc2c1OCC(c1cncc(CN3CCOC3=O)c1)O2 (single isomer, unassigned) [Cpd 31B, 2-[5-(2-Oxo-oxazolidin-3-ylmethyl)-pyridin-3-yl]-2,3-dihydro-benzo[1,4]dioxine-5-carboxylic acid amide]
6 µM	NC(=O)c1cccc2c1OCC(c1cncc(C3(F)CCOCC3)c1)O2 (single isomer, unassigned) [Cpd 32A, 2-[5-(4-Fluoro-tetrahydro-pyran-4-yl)-pyridin-3-yl]-2,3-dihydro-benzo[1,4]dioxine-5-carboxylic acid amide]
0.35 µM	NC(=O)c1cccc2c1OCC(c1cncc(C3(F)CCOCC3)c1)O2 (single isomer, unassigned) [Cpd 32B, 2-[5-(4-Fluoro-tetrahydro-pyran-4-yl)-pyridin-3-yl]-2,3-dihydro-benzo[1,4]dioxine-5-carboxylic acid amide]
> 30 µM	CNC(=O)c1cccc2c1OCC(c1cncc(OC3CCN(C(C)=O)CC3)c1)O2 (single isomer, unassigned) [Cpd 33A, 2-[5-(1-Acetyl-piperidin-4-yloxy)-pyridin-3-yl]-2,3-dihydro-benzo[1,4]dioxine-5-carboxylic acid methylamide]
> 30 µM	CNC(=O)c1cccc2c1OCC(c1cncc(OC3CCN(C(C)=O)CC3)c1)O2 (single isomer, unassigned) [Cpd 33B, 2-[5-(1-Acetyl-piperidin-4-yloxy)-pyridin-3-yl]-2,3-dihydro-benzo[1,4]dioxine-5-carboxylic acid methylamide]
8.5 µM	N#Cc1cccc2c1OCC(c1cncc(CN3CCOC3=O)c1)O2 (single isomer, unassigned) [Cpd 34A, 2-[5-(2-Oxo-oxazolidin-3-ylmethyl)-pyridin-3-yl]-2,3-dihydro-benzo[1,4]dioxine-5-carbonitrile]
> 30 µM	N#Cc1cccc2c1OCC(c1cncc(CN3CCOC3=O)c1)O2 (single isomer, unassigned) [Cpd 34B, 2-[5-(2-Oxo-oxazolidin-3-ylmethyl)-pyridin-3-yl]-2,3-dihydro-benzo[1,4]dioxine-5-carbonitrile]
0.53 µM	CN1C(=O)CCC1c1cncc(C2COc3c(C#N)cccc3O2)c1 (single isomer, unassigned) [Cpd 35A, 2-[5-(1-Methyl-5-oxo-pyrrolidin-2-yl)-pyridin-3-yl]-2,3-dihydro-benzo[1,4] dioxine-5-carbonitrile]
6.2 µM	CN1C(=O)CCC1c1cncc(C2COc3c(C#N)cccc3O2)c1 (single isomer, unassigned) [Cpd 35B, 2-[5-(1-Methyl-5-oxo-pyrrolidin-2-yl)-pyridin-3-yl]-2,3-dihydro-benzo[1,4] dioxine-5-carbonitrile]
> 30 µM	N#Cc1cccc2c1OCC(c1cncc(CN3CCOCC3=O)c1)O2 (single isomer, unassigned) [Cpd 36A, 2-[5-(3-Oxo-morpholin-4-ylmethyl)-pyridin-3-yl]-2,3-dihydro-benzo[1,4]dioxine-5-carbonitrile]
5.8 µM	N#Cc1cccc2c1OCC(c1cncc(CN3CCOCC3=O)c1)O2 (single isomer, unassigned) [Cpd 36B, 2-[5-(3-Oxo-morpholin-4-ylmethyl)-pyridin-3-yl]-2,3-dihydro-benzo[1,4]dioxine-5-carbonitrile]
25 µM	CS(=O)(=O)Cc1cncc(C2COc3c(C#N)cccc3O2)c1 (single isomer, unassigned) [Cpd 37A, 2-(5-Methanesulfonylmethyl-pyridin-3-yl)-2,3-dihydro-benzo[1,4]dioxine-5-carbonitrile]

IC50	Structure (SMILES)
8 µM	CS(=O)(=O)Cc1cncc(C2COc3c(C#N)cccc3O2)c1 (single isomer, unassigned) [Cpd 37B, 2-(5-Methanesulfonylmethyl-pyridin-3-yl)-2,3-dihydro-benzo[1,4]dioxine-5-carbonitrile]
15 µM	CC(=O)N1CCC(Oc2cncc(C3COc4c(C#N)cccc4O3)c2)CC1 (single isomer, unassigned) [Cpd 38A, 2-[5-(1-Acetyl-piperidin-4-yloxy)-pyridin-3-yl]-2,3-dihydro-benzo[1,4]dioxine-5-carbonitrile]
0.7 µM	CC(=O)N1CCC(Oc2cncc(C3COc4c(C#N)cccc4O3)c2)CC1 (single isomer, unassigned) [Cpd 38B, 2-[5-(1-Acetyl-piperidin-4-yloxy)-pyridin-3-yl]-2,3-dihydro-benzo[1,4]dioxine-5-carbonitrile]
7.3 µM	N#Cc1cccc2c1OCC(c1cncc(CNC(=O)C3CC3)c1)O2 (single isomer, unassigned) [Cpd 39A, Cyclopropanecarboxylic acid [5-(5-cyano-2,3-dihydro-benzo[1,4]dioxin-2-yl)-pyridin-3-ylmethyl]-amide]
> 30 µM	N#Cc1cccc2c1OCC(c1cncc(CNC(=O)C3CC3)c1)O2 (single isomer, unassigned) [Cpd 39B, Cyclopropanecarboxylic acid [5-(5-cyano-2,3-dihydro-benzo[1,4]dioxin-2-yl)-pyridin-3-ylmethyl]-amide]
> 30 µM	N#Cc1cccc2c1OCC(c1cncc(-c3ccc(S(N)(=O)=O)cc3)c1)O2 (single isomer, unassigned) [Cpd 40A, 4-[5-(5-Cyano-2,3-dihydro-benzo[1,4]dioxin-2-yl)-pyridin-3-yl]-benzenesulfonamide]
11 µM	N#Cc1cccc2c1OCC(c1cncc(-c3ccc(S(N)(=O)=O)cc3)c1)O2 (single isomer, unassigned) [Cpd 40B, 4-[5-(5-Cyano-2,3-dihydro-benzo[1,4]dioxin-2-yl)-pyridin-3-yl]-benzenesulfonamide]
24 µM	N#Cc1cccc2c1OCC(c1cncc(CN3CCCCS3(=O)=O)c1)O2 (single isomer, unassigned) [Cpd 41A, 2-[5-(1,1-Dioxo-1lambda6-[1,2]thiazinan-2-ylmethyl)-pyridin-3-yl]-2,3-dihydro-benzo[1,4]dioxine-5-carbonitrile]
3.9 µM	N#Cc1cccc2c1OCC(c1cncc(CN3CCCCS3(=O)=O)c1)O2 (single isomer, unassigned) [Cpd 41B, 2-[5-(1,1-Dioxo-1lambda6-[1,2]thiazinan-2-ylmethyl)-pyridin-3-yl]-2,3-dihydro-benzo[1,4]dioxine-5-carbonitrile]
18 µM	CN(C)C(=O)COCc1cncc(C2COc3c(C#N)cccc3O2)c1 (single isomer, unassigned) [Cpd 42A, 2-[5-(5-Cyano-2,3-dihydro-benzo[1,4]dioxin-2-yl)-pyridin-3-ylmethoxy]-N,N-dimethyl-acetamide]
1.3 µM	CN(C)C(=O)COCc1cncc(C2COc3c(C#N)cccc3O2)c1 (single isomer, unassigned) [Cpd 42B, 2-[5-(5-Cyano-2,3-dihydro-benzo[1,4]dioxin-2-yl)-pyridin-3-ylmethoxy]-N,N-dimethyl-acetamide]
22 µM	N#Cc1cccc2c1OCC(c1cncc(CC(=O)N3CCOCC3)c1)O2 (single isomer, unassigned) [Cpd 43A, 2-[5-(2-Morpholin-4-yl-2-oxo-ethyl)-pyridin-3-yl]-2,3-dihydro-benzo[1,4]dioxine-5-carbonitrile]
> 30 µM	N#Cc1cccc2c1OCC(c1cncc(CC(=O)N3CCOCC3)c1)O2 (single isomer, unassigned) [Cpd 43B, 2-[5-(2-Morpholin-4-yl-2-oxo-ethyl)-pyridin-3-yl]-2,3-dihydro-benzo[1,4]dioxine-5-carbonitrile]
2.2 µM	CS(=O)(=O)COc1cncc(C2COc3c(C#N)cccc3O2)c1 (single isomer, unassigned) [Cpd 44A, 2-(5-Methanesulfonylmethoxy-pyridin-3-yl)-2,3-dihydro-benzo[1,4]dioxine-5-carbonitrile]
13 µM	CS(=O)(=O)COc1cncc(C2COc3c(C#N)cccc3O2)c1 (single isomer, unassigned) [Cpd 44B, 2-(5-Methanesulfonylmethoxy-pyridin-3-yl)-2,3-dihydro-benzo[1,4]dioxine-5-carbonitrile]
